Results: ChEMBL document CHEMBL3045297, “Synthesis and antifungal activity of 2-azetidinonyl-5-(2-benzoylphenoxy)methyl-1,3,4-oxadiazoles against seed-borne pathogens of Eleusine coracana (L.) Gaertn” (2009)

How the values were obtained:
Format in all cases: functional
Eleusine coracana [1] = assay: Induction of seed germination in Eleusine coracana (finger mellet) at 10 g/L (reference value: 81 +/- 0.40%)
Eleusine coracana [2] = assay: Phytostimulatory activity in Eleusine coracana (finger mellet) seedlings assessed as vigour index at 10 g/L (reference value: 567 +/- 0.5 no unit)
Bipolaris setariae [3] = assay: Antifungal activity against Bipolaris setariae infected finger millet seed assessed as fungal occurrence at 1 g/L after 1 week by stereoscopic analysis (reference value: 18 +/- 0.40%)
Eleusine coracana [4] = assay: Induction of seed germination in Eleusine coracana (finger mellet) at 1 g/L (reference value: 81 +/- 0.40%)
Eleusine coracana [5] = assay: Induction of seed germination in Eleusine coracana (finger mellet) at 20 g/L (reference value: 81 +/- 0.40%)
Bipolaris setariae [6] = assay: Antifungal activity against Bipolaris setariae infected finger millet seed assessed as fungal occurrence at 10 g/L after 1 week by stereoscopic analysis (reference value: 18 +/- 0.40%)
Bipolaris setariae [7] = assay: Antifungal activity against Bipolaris setariae infected finger millet seed assessed as fungal occurrence at 40 g/L after 1 week by stereoscopic analysis (reference value: 18 +/- 0.40%)
Eleusine coracana [8] = assay: Induction of seed germination in Eleusine coracana (finger mellet) at 40 g/L (reference value: 81 +/- 0.40%)
Eleusine coracana [9] = assay: Phytostimulatory activity in Eleusine coracana (finger mellet) seedlings assessed as vigour index at 1 g/L (reference value: 567 +/- 0.5 no unit)
Eleusine coracana [10] = assay: Phytostimulatory activity in Eleusine coracana (finger mellet) seedlings assessed as vigour index at 40 g/L (reference value: 567 +/- 0.5 no unit)
Pyricularia grisea [11] = assay: Antifungal activity against Magnaporthe grisea infected finger millet seed assessed as fungal occurrence at 10 g/L after 1 week by stereoscopic analysis (reference value: 12.5 +/- 0.35%)
Bipolaris setariae [12] = assay: Antifungal activity against Bipolaris setariae infected finger millet seed assessed as fungal occurrence at 20 g/L after 1 week by stereoscopic analysis (reference value: 18 +/- 0.40%)
Pyricularia grisea [13] = assay: Antifungal activity against Magnaporthe grisea infected finger millet seed assessed as fungal occurrence at 20 g/L after 1 week by stereoscopic analysis (reference value: 12.5 +/- 0.35%)
Pyricularia grisea [14] = assay: Antifungal activity against Magnaporthe grisea infected finger millet seed assessed as fungal occurrence at 1 g/L after 1 week by stereoscopic analysis (reference value: 12.5 +/- 0.35%)
Pyricularia grisea [15] = assay: Antifungal activity against Magnaporthe grisea infected finger millet seed assessed as fungal occurrence at 40 g/L after 1 week by stereoscopic analysis (reference value: 12.5 +/- 0.35%)
Eleusine coracana [16] = assay: Phytostimulatory activity in Eleusine coracana (finger mellet) seedlings assessed as vigour index at 20 g/L (reference value: 567 +/- 0.5 no unit)

Cc1ccc(OCc2nnc(N3C(=O)C(Cl)C3c3cccc(Br)c3)o2)c(C(=O)c2cccc(Cl)c2)c1 (stereo unspecified)
Activity (Eleusine coracana [1]): 80%
Vigour_index (Eleusine coracana [2]): 590
Activity (Bipolaris setariae [3]): 3.5%
Activity (Eleusine coracana [4]): 80%
Activity (Eleusine coracana [5]): 82%
Activity (Bipolaris setariae [6]): 4.5%
Activity (Bipolaris setariae [7]): 6%
Activity (Eleusine coracana [8]): 80%
Vigour_index (Eleusine coracana [9]): 581
Vigour_index (Eleusine coracana [10]): 630
Activity (Pyricularia grisea [11]): 3.5%
Activity (Bipolaris setariae [12]): 2.5%
Activity (Pyricularia grisea [13]): 4.5%
Activity (Pyricularia grisea [14]): 5%
Activity (Pyricularia grisea [15]): 4.5%
Vigour_index (Eleusine coracana [16]): 639

COc1ccc(C(=O)c2cc(C)ccc2OCc2nnc(N3C(=O)C(Cl)C3c3cccc(Br)c3)o2)cc1 (stereo unspecified)
Activity (Eleusine coracana [1]): 88%
Vigour_index (Eleusine coracana [2]): 658
Activity (Bipolaris setariae [3]): 3.5%
Activity (Eleusine coracana [4]): 85%
Activity (Eleusine coracana [5]): 90%
Activity (Bipolaris setariae [6]): 2.5%
Activity (Bipolaris setariae [7]): 2%
Activity (Eleusine coracana [8]): 84%
Vigour_index (Eleusine coracana [9]): 626
Vigour_index (Eleusine coracana [10]): 688
Activity (Pyricularia grisea [11]): 2.5%
Activity (Bipolaris setariae [12]): 2%
Activity (Pyricularia grisea [13]): 1%
Activity (Pyricularia grisea [14]): 3.5%
Activity (Pyricularia grisea [15]): 1%
Vigour_index (Eleusine coracana [16]): 706

COC(=O)Nc1nc2ccccc2[nH]1 [CARBENDAZIM]
Activity (Eleusine coracana [1]): 84%
Vigour_index (Eleusine coracana [2]): 579
Activity (Bipolaris setariae [3]): 3%
Activity (Eleusine coracana [4]): 82%
Activity (Eleusine coracana [5]): 85%
Activity (Bipolaris setariae [6]): 3%
Activity (Bipolaris setariae [7]): 2%
Activity (Eleusine coracana [8]): 87%
Vigour_index (Eleusine coracana [9]): 567
Vigour_index (Eleusine coracana [10]): 621
Activity (Pyricularia grisea [11]): 1.5%
Activity (Bipolaris setariae [12]): 2%
Activity (Pyricularia grisea [13]): 1%
Activity (Pyricularia grisea [14]): 1.5%
Activity (Pyricularia grisea [15]): 1%
Vigour_index (Eleusine coracana [16]): 612

Cc1ccc(OCc2nnc(N3C(=O)C(Cl)C3c3cccc(Br)c3)o2)c(C(=O)c2ccccc2)c1 (stereo unspecified)
Activity (Eleusine coracana [1]): 81%
Vigour_index (Eleusine coracana [2]): 569
Activity (Bipolaris setariae [3]): 15%
Activity (Eleusine coracana [4]): 80%
Activity (Eleusine coracana [5]): 84%
Activity (Bipolaris setariae [6]): 6%
Activity (Bipolaris setariae [7]): 1%
Activity (Eleusine coracana [8]): 86%
Vigour_index (Eleusine coracana [9]): 565
Vigour_index (Eleusine coracana [10]): 620
Activity (Pyricularia grisea [11]): 3.5%
Activity (Bipolaris setariae [12]): 4.5%
Activity (Pyricularia grisea [13]): 2.5%
Activity (Pyricularia grisea [14]): 12%
Activity (Pyricularia grisea [15]): 2%
Vigour_index (Eleusine coracana [16]): 589

O=C(c1ccccc1)c1cc(Cl)ccc1OCc1nnc(N2C(=O)C(Cl)C2c2cccc(Br)c2)o1 (stereo unspecified)
Activity (Eleusine coracana [1]): 83%
Vigour_index (Eleusine coracana [2]): 585
Activity (Bipolaris setariae [3]): 11%
Activity (Eleusine coracana [4]): 81%
Activity (Eleusine coracana [5]): 83%
Activity (Bipolaris setariae [6]): 10%
Activity (Bipolaris setariae [7]): 6%
Activity (Eleusine coracana [8]): 86%
Vigour_index (Eleusine coracana [9]): 544
Vigour_index (Eleusine coracana [10]): 641
Activity (Pyricularia grisea [11]): 5%
Activity (Bipolaris setariae [12]): 7%
Activity (Pyricularia grisea [13]): 4%
Activity (Pyricularia grisea [14]): 6%
Activity (Pyricularia grisea [15]): 3%
Vigour_index (Eleusine coracana [16]): 620

Cc1ccc(OCc2nnc(N3C(=O)C(Cl)C3c3cccc(Br)c3)o2)c(C(=O)c2ccc(Cl)cc2)c1 (stereo unspecified)
Activity (Eleusine coracana [1]): 85%
Vigour_index (Eleusine coracana [2]): 611
Activity (Bipolaris setariae [3]): 11%
Activity (Eleusine coracana [4]): 81%
Activity (Eleusine coracana [5]): 85%
Activity (Bipolaris setariae [6]): 9%
Activity (Bipolaris setariae [7]): 4.5%
Activity (Eleusine coracana [8]): 87%
Vigour_index (Eleusine coracana [9]): 588
Vigour_index (Eleusine coracana [10]): 693
Activity (Pyricularia grisea [11]): 3%
Activity (Bipolaris setariae [12]): 5%
Activity (Pyricularia grisea [13]): 3%
Activity (Pyricularia grisea [14]): 4%
Activity (Pyricularia grisea [15]): 2%
Vigour_index (Eleusine coracana [16]): 645

O=C(c1cccc(Cl)c1)c1cc(Cl)ccc1OCc1nnc(N2C(=O)C(Cl)C2c2cccc(Br)c2)o1 (stereo unspecified)
Activity (Eleusine coracana [1]): 86%
Vigour_index (Eleusine coracana [2]): 668
Activity (Bipolaris setariae [3]): 2.5%
Activity (Eleusine coracana [4]): 85%
Activity (Eleusine coracana [5]): 89%
Activity (Bipolaris setariae [6]): 2%
Activity (Bipolaris setariae [7]): 0.5%
Activity (Eleusine coracana [8]): 90%
Vigour_index (Eleusine coracana [9]): 622
Vigour_index (Eleusine coracana [10]): 700
Activity (Pyricularia grisea [11]): 1%
Activity (Bipolaris setariae [12]): 0.5%
Activity (Pyricularia grisea [13]): 0.5%
Activity (Pyricularia grisea [14]): 2%
Activity (Pyricularia grisea [15]): 0.5%
Vigour_index (Eleusine coracana [16]): 711

Cc1ccc(OCc2nnc(N3C(=O)C(Cl)C3c3cccc(Br)c3)o2)c(C(=O)c2ccccc2Cl)c1 (stereo unspecified)
Activity (Eleusine coracana [1]): 84%
Vigour_index (Eleusine coracana [2]): 674
Activity (Bipolaris setariae [3]): 4%
Activity (Eleusine coracana [4]): 82%
Activity (Eleusine coracana [5]): 86%
Activity (Bipolaris setariae [6]): 3.5%
Activity (Bipolaris setariae [7]): 2%
Activity (Eleusine coracana [8]): 89%
Vigour_index (Eleusine coracana [9]): 645
Vigour_index (Eleusine coracana [10]): 692
Activity (Pyricularia grisea [11]): 3%
Activity (Bipolaris setariae [12]): 2%
Activity (Pyricularia grisea [13]): 2%
Activity (Pyricularia grisea [14]): 3.5%
Activity (Pyricularia grisea [15]): 1%
Vigour_index (Eleusine coracana [16]): 754

O=C(c1ccccc1)c1ccc(Br)cc1OCc1nnc(N2C(=O)C(Cl)C2c2cccc(Br)c2)o1 (stereo unspecified)
Activity (Eleusine coracana [1]): 86%
Vigour_index (Eleusine coracana [2]): 615
Activity (Bipolaris setariae [3]): 13.5%
Activity (Eleusine coracana [4]): 81%
Activity (Eleusine coracana [5]): 86%
Activity (Bipolaris setariae [6]): 4.5%
Activity (Bipolaris setariae [7]): 2.5%
Activity (Eleusine coracana [8]): 83%
Vigour_index (Eleusine coracana [9]): 572
Vigour_index (Eleusine coracana [10]): 663
Activity (Pyricularia grisea [11]): 3.5%
Activity (Bipolaris setariae [12]): 3.5%
Activity (Pyricularia grisea [13]): 3.5%
Activity (Pyricularia grisea [14]): 4%
Activity (Pyricularia grisea [15]): 2.5%
Vigour_index (Eleusine coracana [16]): 655

Cc1ccc(C(=O)c2cc(C)ccc2OCc2nnc(N3C(=O)C(Cl)C3c3cccc(Br)c3)o2)cc1 (stereo unspecified)
Activity (Eleusine coracana [1]): 82%
Vigour_index (Eleusine coracana [2]): 633
Activity (Bipolaris setariae [3]): 14%
Activity (Eleusine coracana [4]): 80%
Activity (Eleusine coracana [5]): 86%
Activity (Bipolaris setariae [6]): 6%
Activity (Bipolaris setariae [7]): 1.5%
Activity (Eleusine coracana [8]): 83%
Vigour_index (Eleusine coracana [9]): 594
Vigour_index (Eleusine coracana [10]): 659
Activity (Pyricularia grisea [11]): 4%
Activity (Bipolaris setariae [12]): 2.5%
Activity (Pyricularia grisea [13]): 1.5%
Activity (Pyricularia grisea [14]): 4%
Activity (Pyricularia grisea [15]): 1%
Vigour_index (Eleusine coracana [16]): 680

Cc1cc(OCc2nnc(N3C(=O)C(Cl)C3c3cccc(Br)c3)o2)c(C(=O)c2ccccc2)cc1Cl (stereo unspecified)
Activity (Eleusine coracana [1]): 86%
Vigour_index (Eleusine coracana [2]): 677
Activity (Bipolaris setariae [3]): 2%
Activity (Eleusine coracana [4]): 86%
Activity (Eleusine coracana [5]): 89%
Activity (Bipolaris setariae [6]): 1%
Activity (Bipolaris setariae [7]): 2%
Activity (Eleusine coracana [8]): 82%
Vigour_index (Eleusine coracana [9]): 661
Vigour_index (Eleusine coracana [10]): 656
Activity (Pyricularia grisea [11]): 2%
Activity (Bipolaris setariae [12]): 2%
Activity (Pyricularia grisea [13]): 1%
Activity (Pyricularia grisea [14]): 3%
Activity (Pyricularia grisea [15]): 0%
Vigour_index (Eleusine coracana [16]): 715
